Test results: patent US20060276393A1, “Novel compositions for preventing and treating neurodegenerative and blood coagulation disorders” (Sirtris Pharmaceuticals, Inc., priority 2005, published 2006)
Read-outs that look alike come from different tables or passages of the source.

What was measured:
recombinant human SIRT1 = molecular target: T1, recombinant human SIRT1 (Homo sapiens, UniProt Q96EB6); experiment: SIRT1 fluorescent deacetylation assay (p53-382 acetylated peptide); type: biochemical
T1 sequence (Q96EB6 1-747): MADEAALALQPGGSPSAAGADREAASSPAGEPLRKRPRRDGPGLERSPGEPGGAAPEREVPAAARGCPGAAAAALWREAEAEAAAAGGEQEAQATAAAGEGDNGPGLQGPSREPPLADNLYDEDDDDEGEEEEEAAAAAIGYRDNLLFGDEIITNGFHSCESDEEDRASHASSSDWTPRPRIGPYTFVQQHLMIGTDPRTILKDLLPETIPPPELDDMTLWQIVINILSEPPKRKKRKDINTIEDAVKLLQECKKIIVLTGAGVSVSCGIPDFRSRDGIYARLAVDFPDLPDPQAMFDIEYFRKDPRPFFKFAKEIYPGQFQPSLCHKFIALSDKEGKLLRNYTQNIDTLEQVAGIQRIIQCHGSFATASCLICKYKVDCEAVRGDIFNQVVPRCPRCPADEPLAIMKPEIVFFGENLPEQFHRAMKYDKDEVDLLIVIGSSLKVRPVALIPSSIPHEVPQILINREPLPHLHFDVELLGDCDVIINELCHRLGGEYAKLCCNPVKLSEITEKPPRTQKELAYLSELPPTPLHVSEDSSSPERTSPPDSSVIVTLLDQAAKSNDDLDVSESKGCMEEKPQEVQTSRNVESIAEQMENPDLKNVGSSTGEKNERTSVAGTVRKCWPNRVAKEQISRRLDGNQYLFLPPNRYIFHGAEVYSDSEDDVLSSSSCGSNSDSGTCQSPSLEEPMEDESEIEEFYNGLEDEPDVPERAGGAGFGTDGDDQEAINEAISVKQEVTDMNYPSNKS

[1] = test system: acetylated K382 of p53 in U2OS osteosarcoma cells; experiment: p53 Ac-K382 Western blot after UV radiation; type: cell-based, human
Experimental: FdL (200 μM) is added to growth media and cells incubated for 1-3 hours to allow FdL to enter the cells and the lysine-deacetylated product (deAc-FdL) to accumulate intracellularly. Cells are lysed with detergent in the presence of 1 μM TSA, 1 mM nicotinamide. […] Cells were grown adherently in DMEM/10% FCS and treated for 1 hour with 200 μM FdL, 1 μM TSA and either vehicle (0.5% final DMSO, Control) or 500 μM of the indicated compound. Intracellular accumulation of deAc-FdL was then determined as described briefly in a. […] Lysates were prepared and analyzed as above.

S. cerevisiae = experiment: Yeast chronological lifespan; type: cell-based; conditions: 10 μM or 100 μM, nutrient deprived state
recombinant dSir2 = molecular target: T2, recombinant dSir2 (Drosophila melanogaster, UniProt Q9VK34); experiment: dSir2 deacetylation assay; type: biochemical, D. melanogaster; conditions: dose-dependent; Fluor de Lys
T2 sequence (Q9VK34 1-823): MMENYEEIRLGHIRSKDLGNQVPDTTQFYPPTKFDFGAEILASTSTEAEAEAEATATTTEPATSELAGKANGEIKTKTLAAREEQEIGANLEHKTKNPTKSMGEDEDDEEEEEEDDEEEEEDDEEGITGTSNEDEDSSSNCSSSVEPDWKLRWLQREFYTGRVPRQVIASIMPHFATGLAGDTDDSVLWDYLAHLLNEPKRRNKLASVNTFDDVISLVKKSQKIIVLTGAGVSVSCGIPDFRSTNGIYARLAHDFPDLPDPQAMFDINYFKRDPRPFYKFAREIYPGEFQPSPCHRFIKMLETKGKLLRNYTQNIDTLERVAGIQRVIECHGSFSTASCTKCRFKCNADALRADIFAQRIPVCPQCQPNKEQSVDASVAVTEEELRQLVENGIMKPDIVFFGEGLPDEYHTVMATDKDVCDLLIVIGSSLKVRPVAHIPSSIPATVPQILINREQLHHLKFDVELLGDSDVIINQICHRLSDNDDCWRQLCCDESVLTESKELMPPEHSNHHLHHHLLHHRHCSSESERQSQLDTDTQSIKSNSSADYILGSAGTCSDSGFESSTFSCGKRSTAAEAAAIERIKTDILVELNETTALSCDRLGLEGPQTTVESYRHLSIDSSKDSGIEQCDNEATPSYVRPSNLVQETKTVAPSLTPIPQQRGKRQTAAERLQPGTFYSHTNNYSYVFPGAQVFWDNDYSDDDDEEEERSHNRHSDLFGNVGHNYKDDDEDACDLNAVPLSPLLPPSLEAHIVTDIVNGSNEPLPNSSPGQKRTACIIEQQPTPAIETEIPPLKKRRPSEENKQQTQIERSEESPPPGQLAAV
Experimental: STACs were dissolved at 10 mM in dimethylsulfoxide (DMSO) the day of the assay. […] Drosophila S2 cells were grown in Schneider media with fetal calf serum at 23-28° C., seeded at 9×10^4 cells/well, grown overnight and then exposed to 1 μM TSA, 500 μM polyphenols, and 200 μM FdL for 2 hr. Deacetylation of FdL with lysate from whole cells was determined as described^4. Unless otherwise indicated all initial rate measurements were means of three or more replicates obtained with single incubation times, at which point 5% or less of the substrate initially present was deacetylated.

[2] = 25 μM NAD+, 25 μM p53-382 acetylated peptide

With `Oc1ccc(/C=C/c2cc(O)cc(O)c2)cc1` [Resveratrol, 3,5,4′-Trihydroxy-trans-stilbene] as the compound, how does the “apparent Km for NAD+ and acetylated substrate in presence of nicotinamide” value (recombinant human SIRT1; 5 μM resveratrol, 50 μM nicotinamide) read?
Its value is “raised”.

What about the “concentration at which the activating effect doubled the rate” value (recombinant human SIRT1; [2]) of the same compound?
Its value is about 11 µM.

And the “concentration at which the activating effect was essentially saturated” value (recombinant human SIRT1; [2])?
Its value is 100 µM.

And the “SIRT1 stimulating activity (in words)” value (recombinant human SIRT1; 25 μM NAD+, 25 μM p53-382 acetylated peptide, compounds at 100 μM)?
The value was “most active compound overall”.

What about the “effect on the two Vmax determinations” value (recombinant human SIRT1; 100 μM resveratrol) of the same compound?
Its value is “no significant effect”.

And the “lowering of Km for NAD+” value (recombinant human SIRT1; 100 μM resveratrol, 1 mM acetylated peptide)?
Its value is “over 5 fold”.

And the “Vmax (+resveratrol), NAD+ varied” value (recombinant human SIRT1; 100 μM resveratrol, 1 mM p53-382 acetylated peptide)?
Its value is 1749 AFU/min.

What about the “Vmax (+resveratrol), acetylated peptide varied” value (recombinant human SIRT1; 100 μM resveratrol, 3 mM NAD+) of the same compound?
The value was 926 AFU/min.

And the “decrease of acetylated peptide Km” value (recombinant human SIRT1; 100 μM resveratrol, 3 mM NAD+)?
The value was 35 fold.

And the “Km for NAD+ and acetylated peptide in presence of nicotinamide” value (recombinant human SIRT1; 20 and 100 μM resveratrol, 50 μM nicotinamide)?
Its value is “lowers the Km for both NAD^+ and acetylated peptide”.

And the Km (recombinant human SIRT1; read-out: Km for NAD+ (+resveratrol), 100 μM resveratrol, 1 mM p53-382 acetylated peptide)?
Its Km is 101 µM.

What about the Km (recombinant human SIRT1; read-out: Km for p53-382 acetylated peptide (+resveratrol), 100 μM resveratrol, 3 mM NAD+) of the same compound?
Its Km is 1.8 µM.

What about the “level of Ac-K382 of p53” value ([1]; 0.5 μM resveratrol, 4 hours pre-treatment, UV) of the same compound?
Its value is “marked decrease in the level of Ac-K382”.

And the “level of Ac-K382 of p53” value ([1]; >50 μM resveratrol)?
Its value is “the effect was reversed”.

And the chronological lifespan (S. cerevisiae)?
Its chronological lifespan is “failed to extend chronological lifespan”.

And the “stimulated deacetylation (maximum)” value (recombinant dSir2)?
Its value is at most 2.4 fold.
